This passage reports IC50 results from patent publication US11040981B2, “Pyrrolotriazine compounds and methods of inhibiting TAM kinases” (Syros Pharmaceuticals, Inc., priority 2017, dated 2021).

For one test, the target named is T1, AXL (Homo sapiens, UniProt P30530).
T1 sequence (P30530 26-894): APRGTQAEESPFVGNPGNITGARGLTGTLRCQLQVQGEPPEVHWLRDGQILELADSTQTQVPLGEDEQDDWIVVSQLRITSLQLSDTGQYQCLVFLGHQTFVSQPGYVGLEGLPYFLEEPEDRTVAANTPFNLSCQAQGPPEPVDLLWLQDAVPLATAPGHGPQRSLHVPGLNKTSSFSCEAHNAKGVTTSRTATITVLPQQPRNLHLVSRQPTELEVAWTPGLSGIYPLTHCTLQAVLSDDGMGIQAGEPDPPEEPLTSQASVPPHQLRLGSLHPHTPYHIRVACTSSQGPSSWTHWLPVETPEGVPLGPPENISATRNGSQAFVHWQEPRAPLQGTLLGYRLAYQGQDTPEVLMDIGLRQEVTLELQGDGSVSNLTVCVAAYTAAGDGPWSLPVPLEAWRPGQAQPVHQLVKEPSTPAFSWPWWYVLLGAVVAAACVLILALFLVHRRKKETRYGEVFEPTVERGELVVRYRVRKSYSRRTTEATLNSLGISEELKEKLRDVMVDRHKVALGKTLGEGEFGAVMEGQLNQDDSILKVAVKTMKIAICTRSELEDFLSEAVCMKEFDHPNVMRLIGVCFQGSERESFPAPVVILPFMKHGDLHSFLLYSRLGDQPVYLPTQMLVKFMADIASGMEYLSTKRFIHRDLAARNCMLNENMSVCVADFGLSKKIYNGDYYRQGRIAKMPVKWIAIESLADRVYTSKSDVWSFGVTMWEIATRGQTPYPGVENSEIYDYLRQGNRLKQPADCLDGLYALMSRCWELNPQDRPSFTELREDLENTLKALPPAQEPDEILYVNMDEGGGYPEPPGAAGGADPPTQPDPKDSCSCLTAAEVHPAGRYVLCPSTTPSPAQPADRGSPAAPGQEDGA
The experiment in a line: TR-FRET kinase activity assay, AXL. Type of test: biochemical. The following applies: ATP at Km, 60 minutes. As to the method:
(§1) IC50 values for compound inhibition of AXL, FLT3, MERTK and TYRO3 activity were determined by using a TR-FRET activity assay. A polypeptide substrate with a fluorescent label is phosphorylated on a tyrosine by each enzyme, where the now phosphorylated product is bound by a Europium-labeled antibody specific to that phosphorylation site. The proximity between the antibody and the substrate gives a signal known as TR-FRET. As the enzyme is inhibited by compound, less phosphorylated peptide product is made causing a decrease in overall signal.
(§2) Activity assays were performed in a 384-well, small volume, black microplates in an active enzyme volume of 10 μL and final developed volume of 20 μL. Final assay conditions are 50 mM HEPES pH 7.5, 10 mM MgCl2, 1 mM EGTA, 0.01% Brij 35 and 1 mM DTT all at RT. Enzyme, substrate labeled peptide and compound are mixed, and then the reaction is initiated with the addition of ATP at Km concentration for each enzyme. The reaction is allowed to run 60 minutes and then quenched with a 12.5 mM EDTA (ethylenediamine tetraacetic acid) solution. The plate is then developed with the addition of Europium labeled antibody for a final volume of 20 μL and is then incubated for 30 minutes in darkness. Plates are read in a Pherastar plate reader. Data is analyzed in GraphPad PRISM.
(§3) The results of these assays are shown in Table 1, below, wherein “No.” designates compound number (FIG. 1); “A” represents a value of ≤100 nM; “B” a value of >100 nM and ≤1 μM; “C” a value of >1 μM and ≤10 μM; “D” a value of >10 μM; “ND” is not determined. The ratio of Mer to FLT3 is calculated as follows: FLT3 IC50/Mer IC50. “+” represents a ratio of >2.0 and <10; “++” represents a ratio of between 10 and 100; and “+++” represents a ratio of >100.

In a further test the target is T2, TYRO3 (Homo sapiens, UniProt Q06418).
T2 sequence (Q06418 41-890): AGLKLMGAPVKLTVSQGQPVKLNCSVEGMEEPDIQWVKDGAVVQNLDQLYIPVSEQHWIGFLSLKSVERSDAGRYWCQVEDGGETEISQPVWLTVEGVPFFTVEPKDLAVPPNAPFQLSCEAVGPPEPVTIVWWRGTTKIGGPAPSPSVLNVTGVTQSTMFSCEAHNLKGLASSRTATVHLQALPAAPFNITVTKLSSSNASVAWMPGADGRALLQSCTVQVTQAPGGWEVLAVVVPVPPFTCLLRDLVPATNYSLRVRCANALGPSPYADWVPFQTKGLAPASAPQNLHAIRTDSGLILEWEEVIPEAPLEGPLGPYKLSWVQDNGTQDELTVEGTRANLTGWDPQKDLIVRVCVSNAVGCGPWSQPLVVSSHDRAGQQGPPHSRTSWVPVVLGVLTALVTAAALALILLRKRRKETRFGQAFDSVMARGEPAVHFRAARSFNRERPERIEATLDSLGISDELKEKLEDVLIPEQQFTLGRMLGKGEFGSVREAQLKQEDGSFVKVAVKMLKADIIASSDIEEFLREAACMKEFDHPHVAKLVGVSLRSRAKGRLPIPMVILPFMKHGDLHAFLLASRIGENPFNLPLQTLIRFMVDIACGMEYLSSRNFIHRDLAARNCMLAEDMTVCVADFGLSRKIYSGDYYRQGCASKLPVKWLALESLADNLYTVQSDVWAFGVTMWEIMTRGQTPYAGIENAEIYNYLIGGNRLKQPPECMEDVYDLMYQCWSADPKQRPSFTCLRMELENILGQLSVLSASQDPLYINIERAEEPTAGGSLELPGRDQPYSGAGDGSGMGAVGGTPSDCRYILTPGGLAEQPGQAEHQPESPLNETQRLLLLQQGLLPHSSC
In words: TR-FRET kinase activity assay, TYRO3. It is filed as biochemical. The following applies: ATP at Km, 60 minutes. The procedure:
as §1, §2, §3

As to `COC[C@H](C)Nc1ncc2c(-c3cnn(CC(=O)N4CCN(C)CC4)c3)cc([C@H]3CC[C@H](O)CC3)n2n1` [Compound 240], the IC50 against AXL is 100 to 1000 nM; against TYRO3 it was at most 100 nM.
With `COC[C@H](C)Nc1ncc2c(-c3ccc(C)cn3)cc([C@H]3CC[C@H](O)CC3)n2n1` [Compound 258], the IC50 on AXL was 100 to 1000 nM; against TYRO3 it was at most 100 nM.
For `COC[C@H](C)Nc1ncc2c(-c3cnn(CC(=O)NC(C)C)c3)cc([C@H]3CC[C@H](O)CC3)n2n1` [Compound 235] the same measures were 100 to 1000 nM and at most 100 nM.
In the case of `COC[C@H](C)Nc1ncc2c(-c3cnn(CC(=O)N4CCCC4)c3)cc([C@H]3CC[C@H](O)CC3)n2n1` [Compound 239], the IC50 on AXL and on TYRO3 was at most 100 nM in each case.
For `COC[C@H](C)Nc1ncc2c(-c3cncc(S(C)(=O)=O)c3)cc([C@H]3CC[C@H](O)CC3)n2n1` [Compound 194], the IC50 against AXL is 100 to 1000 nM; on TYRO3 it was at most 100 nM.
For `COCC(C)Nc1ncc2c(-c3cccc(CN4CCC(F)C4)c3)cc(C3CCC(O)CC3)n2n1` (stereo not shown) [Compound 225] the same measures were at most 100 nM and at most 100 nM.
For the compound `COC[C@H](C)Nc1ncc2c(-c3ccc(C(=O)N4CCN(C)CC4)nc3)cc([C@H]3CC[C@H](O)CC3)n2n1` [Compound 226], the half-inhibitory concentration (IC50) on AXL is 100 to 1000 nM; against TYRO3, at most 100 nM.
The corresponding values for `C[C@H](Nc1ncc2c(-c3ccc(CN4CCOCC4)cc3)cc([C@H]3CC[C@H](O)CC3)n2n1)[C@@H]1CCCO1` [Compound 205] are 1000 to 10000 nM and at most 100 nM.
For `COC[C@H](C)Nc1ncc2c(-c3ccc4c(c3)CC(=O)N4)cc([C@H]3CC[C@H](O)CC3)n2n1` [Compound 251] the same measures were 100 to 1000 nM and at most 100 nM.
`CC(C)OC[C@H](C)Nc1ncc2c(-c3ccc(CN4CCOCC4)cc3)cc([C@H]3CC[C@H](O)CC3)n2n1` [Compound 214]: the half-maximal inhibitory concentration (IC50) was 100 to 1000 nM at AXL and at most 100 nM on TYRO3.
For `COC[C@H](C)Nc1ncc2c(-c3cnn([C@H]4CCOC4)c3)cc([C@H]3CC[C@H](O)CC3)n2n1` [Compound 243] the same measures were at most 100 nM and at most 100 nM.
For `COC[C@H](C)Nc1ncc2c(-c3ccc(C)nc3)cc([C@H]3CC[C@H](O)CC3)n2n1` [Compound 246] the same measures were at most 100 nM and at most 100 nM.
Take `COC[C@H](C)Nc1ncc2c(-c3cncc(C#N)c3)cc([C@H]3CC[C@H](O)CC3)n2n1` [Compound 201]: the IC50 was 100 to 1000 nM on AXL and at most 100 nM on TYRO3.
The corresponding values for `COC[C@H](C)Nc1ncc2c(-c3cccc4c3CNC4=O)cc([C@H]3CC[C@H](O)CC3)n2n1` [Compound 210] are 100 to 1000 nM and at most 100 nM.
For `CC(Nc1ncc2c(-c3ccc(CN4CCOCC4)cc3)cc(C3CCC(O)CC3)n2n1)C(F)(F)F` (stereo not shown) [Compound 202], the half-maximal inhibitory concentration (IC50) against AXL was 100 to 1000 nM; at TYRO3 it was at most 100 nM.
The corresponding values for `COC[C@H](C)Nc1ncc2c(-c3ccc(N4CCN(C)CC4)nc3)cc([C@H]3CC[C@H](O)CC3)n2n1` [Compound 271] are at most 100 nM and at most 100 nM.
For `CC(CCF)Nc1ncc2c(-c3ccc(CN4CCOCC4)cc3)cc(C3CCC(O)CC3)n2n1` (stereo not shown) [Compound 244] the same measures were at most 100 nM and at most 100 nM.
Consider `COC[C@H](C)Nc1ncc2c(-c3cnn(C(F)F)c3)cc([C@H]3CC[C@H](O)CC3)n2n1` [Compound 207], for which the half-inhibitory concentration (IC50) on AXL and at TYRO3 was at most 100 nM throughout.
Regarding `COC[C@H](C)Nc1ncc2c(-c3cnn(CC(=O)N[C@H]4CCOC4)c3)cc([C@H]3CC[C@H](O)CC3)n2n1` [Compound 237], the half-maximal inhibitory concentration (IC50) against AXL was 100 to 1000 nM; against TYRO3, at most 100 nM.
For `COC[C@H](C)Nc1ncc2c(-c3ccc(CN4CCOCC4)nc3)cc([C@H]3CC[C@H](O)CC3)n2n1` [Compound 230] the same measures were 100 to 1000 nM and at most 100 nM.
For the compound `COC[C@H](C)Nc1ncc2c(-c3cccc(CN4CCN(C)CC4)c3)cc([C@H]3CC[C@H](O)CC3)n2n1` [Compound 218], the IC50 on AXL was 100 to 1000 nM; against TYRO3 it was at most 100 nM.
Regarding `COCCn1cc(-c2cc([C@H]3CC[C@H](O)CC3)n3nc(N[C@@H](C)COC)ncc23)cn1` [Compound 209], the concentration for half-maximal inhibition (IC50) was 100 to 1000 nM against AXL and at most 100 nM against TYRO3.
For `COC[C@H](C)Nc1ncc2c(-c3cncc(C)c3)cc([C@H]3CC[C@H](O)CC3)n2n1` [Compound 231] the same measures were 100 to 1000 nM and at most 100 nM.
The corresponding values for `COC[C@H](C)Nc1ncc2c(-c3cncc(C(=O)N4CCOCC4)c3)cc([C@H]3CC[C@H](O)CC3)n2n1` [Compound 233] are 100 to 1000 nM and at most 100 nM.
The corresponding values for `COC[C@H](C)Nc1ncc2c(-c3cccc(CN4CCC(F)(F)C4)c3)cc([C@H]3CC[C@H](O)CC3)n2n1` [Compound 223] are 100 to 1000 nM and at most 100 nM.
Consider `COC[C@H](C)Nc1ncc2c(-c3cccc(CN4CCOCC4)c3)cc([C@H]3CC[C@H](O)CC3)n2n1` [Compound 217], for which the IC50 at AXL was 100 to 1000 nM; against TYRO3, at most 100 nM.
In the case of `CCCCC[C@H](C)Nc1ncc2c([C@H]3CC[C@@H](C(=O)N4CCOCC4)CC3)cc([C@H]3CC[C@H](O)CC3)n2n1` [Compound 109, ((cis)-4-(2-((S)-heptan-2-ylamino)-7-((trans)-4-hydroxycyclohexyl)pyrrolo[2,1-f][1,2,4]triazin-5-yl)cyclohexyl)(morpholino)methanone], the IC50 against AXL and against TYRO3 was at most 100 nM each time.
In the case of `COC[C@H](C)Nc1ncc2c(-c3cccc(CN4CC[C@@H](F)C4)c3)cc([C@H]3CC[C@H](O)CC3)n2n1` [Compound 224], the half-maximal inhibitory concentration (IC50) at AXL was 100 to 1000 nM; at TYRO3, at most 100 nM.
The corresponding values for `COC[C@H](C)Nc1ncc2c(-c3cn(C)nn3)cc([C@H]3CC[C@H](O)CC3)n2n1` [Compound 250, (trans)-4-(2-(((S)-1-methoxypropan-2-yl)amino)-5-(1-methyl-1H-1,2,3-triazol-4-yl)pyrrolo[2,1-f][1,2,4]triazin-7-yl)cyclohexanol] are 100 to 1000 nM and at most 100 nM.
